In brackets after ≈: the same amount, converted by molar mass. Activity calls are given as the source filed them. The calls are words filed in the database; no cut-off is given here.
Tests used:
Format in all cases: functional
[1] = tested on: COLO 205; test: Growth inhibition of human COLO205 cells at 10^-5 M incubated for 48 hrs by sulforhodamine B assay relative to control
[2] = tested on: SK-OV-3; test: Growth inhibition of human SKOV3 cells at 10^-5 M incubated for 48 hrs by sulforhodamine B assay relative to control
[3] = tested on: SF-295; test: Growth inhibition of human SF295 cells at 10^-5 M incubated for 48 hrs by sulforhodamine B assay relative to control
[4] = tested on: SNB-19; test: Growth inhibition of human SNB19 cells at 10^-5 M incubated for 48 hrs by sulforhodamine B assay relative to control
[5] = tested on: SF-539; test: Growth inhibition of human SF539 cells at 10^-5 M incubated for 48 hrs by sulforhodamine B assay relative to control
[6] = tested on: 786-0; test: Growth inhibition of human 786-0 cells at 10^-5 M incubated for 48 hrs by sulforhodamine B assay relative to control
[7] = tested on: HL-60(TB); test: Growth inhibition of human HL-60(TB) cells at 10^-5 M incubated for 48 hrs by sulforhodamine B assay relative to control
[8] = tested on: OVCAR-8; test: Growth inhibition of human OVCAR8 cells at 10^-5 M incubated for 48 hrs by sulforhodamine B assay relative to control
[9] = tested on: HCC 2998; test: Growth inhibition of human HCC2998 cells at 10^-5 M incubated for 48 hrs by sulforhodamine B assay relative to control
[10] = tested on: K562; test: Growth inhibition of human K562 cells at 10^-5 M incubated for 48 hrs by sulforhodamine B assay relative to control
[11] = tested on: SR; test: Growth inhibition of human SR cells at 10^-5 M incubated for 48 hrs by sulforhodamine B assay relative to control
[12] = tested on: Aspergillus fumigatus; test: Antifungal activity against Aspergillus fumigatus after 24 hrs by serial dilution method
[13] = tested on: M14; test: Growth inhibition of human M14 cells at 10^-5 M incubated for 48 hrs by sulforhodamine B assay relative to control
[14] = tested on: MOLT-4; test: Growth inhibition of human MOLT4 cells at 10^-5 M incubated for 48 hrs by sulforhodamine B assay relative to control
[15] = tested on: HT-29; test: Growth inhibition of human HT-29 cells at 10^-5 M incubated for 48 hrs by sulforhodamine B assay relative to control
[16] = tested on: TK-10; test: Growth inhibition of human TK10 cells at 10^-5 M incubated for 48 hrs by sulforhodamine B assay relative to control
[17] = tested on: SK-MEL-5; test: Growth inhibition of human SK-MEL-5 cells at 10^-5 M incubated for 48 hrs by sulforhodamine B assay relative to control
[18] = tested on: OVCAR-5; test: Growth inhibition of human OVCAR5 cells at 10^-5 M incubated for 48 hrs by sulforhodamine B assay relative to control
[19] = tested on: T47D; test: Growth inhibition of human T47D cells at 10^-5 M incubated for 48 hrs by sulforhodamine B assay relative to control
[20] = tested on: SF-268; test: Growth inhibition of human SF268 cells at 10^-5 M incubated for 48 hrs by sulforhodamine B assay relative to control
[21] = tested on: SN12C; test: Growth inhibition of human SN12C cells at 10^-5 M incubated for 48 hrs by sulforhodamine B assay relative to control
[22] = tested on: NCI-H23; test: Growth inhibition of human NCI-H23 cells at 10^-5 M incubated for 48 hrs by sulforhodamine B assay relative to control
[23] = tested on: RXF 393; test: Growth inhibition of human RXF393 cells at 10^-5 M incubated for 48 hrs by sulforhodamine B assay relative to control
[24] = tested on: SK-MEL-28; test: Growth inhibition of human SK-MEL-28 cells at 10^-5 M incubated for 48 hrs by sulforhodamine B assay relative to control
[25] = tested on: Hs-578T; test: Growth inhibition of human Hs 578T cells at 10^-5 M incubated for 48 hrs by sulforhodamine B assay relative to control
[26] = tested on: MCF7; test: Growth inhibition of human MCF7 cells at 10^-5 M incubated for 48 hrs by sulforhodamine B assay relative to control
[27] = tested on: BT-549; test: Growth inhibition of human BT549 cells at 10^-5 M incubated for 48 hrs by sulforhodamine B assay relative to control
[28] = tested on: SNB-75; test: Growth inhibition of human SNB75 cells at 10^-5 M incubated for 48 hrs by sulforhodamine B assay relative to control
[29] = tested on: KM12; test: Growth inhibition of human KM12 cells at 10^-5 M incubated for 48 hrs by sulforhodamine B assay relative to control
[30] = tested on: U-251; test: Growth inhibition of human U251 cells at 10^-5 M incubated for 48 hrs by sulforhodamine B assay relative to control
[31] = tested on: Aspergillus fumigatus; test: Antifungal activity against Aspergillus fumigatus at 100 ug/ml by disc diffusion method; conditions: read-out: IZ
[32] = tested on: Candida albicans; test: Antifungal activity against Candida albicans after 24 hrs by serial dilution method
[33] = tested on: SW-620; test: Growth inhibition of human SW620 cells at 10^-5 M incubated for 48 hrs by sulforhodamine B assay relative to control
[34] = tested on: UACC-62; test: Growth inhibition of human UACC62 cells at 10^-5 M incubated for 48 hrs by sulforhodamine B assay relative to control
[35] = tested on: HCT-15; test: Growth inhibition of human HCT15 cells at 10^-5 M incubated for 48 hrs by sulforhodamine B assay relative to control
[36] = tested on: LOX IMVI; test: Growth inhibition of human LOXIMVI cells at 10^-5 M incubated for 48 hrs by sulforhodamine B assay relative to control
[37] = tested on: MDA-MB-231; test: Growth inhibition of human MDA-MB-231/ATCC cells at 10^-5 M incubated for 48 hrs by sulforhodamine B assay relative to control
[38] = tested on: EKVX; test: Growth inhibition of human EKVX cells at 10^-5 M incubated for 48 hrs by sulforhodamine B assay relative to control
[39] = tested on: NCI-H226; test: Growth inhibition of human NCI-H226 cells at 10^-5 M incubated for 48 hrs by sulforhodamine B assay relative to control
[40] = tested on: UO-31; test: Growth inhibition of human UO31 cells at 10^-5 M incubated for 48 hrs by sulforhodamine B assay relative to control
[41] = tested on: ACHN; test: Growth inhibition of human ACHN cells at 10^-5 M incubated for 48 hrs by sulforhodamine B assay relative to control
[42] = tested on: OVCAR-3; test: Growth inhibition of human OVCAR3 cells at 10^-5 M incubated for 48 hrs by sulforhodamine B assay relative to control
[43] = tested on: UACC-257; test: Growth inhibition of human UACC257 cells at 10^-5 M incubated for 48 hrs by sulforhodamine B assay relative to control
[44] = tested on: A549; test: Growth inhibition of human A549/ATCC cells at 10^-5 M incubated for 48 hrs by sulforhodamine B assay relative to control
[45] = tested on: OVCAR-4; test: Growth inhibition of human OVCAR4 cells at 10^-5 M incubated for 48 hrs by sulforhodamine B assay relative to control

Clc1nc2ccc(Br)cc2cc1Cn1nnc(Cc2ccccc2)n1
growth inhibition (GI) [1]: Active | growth inhibition (GI) [2]: Active | growth inhibition (GI) [3]: Active | growth inhibition (GI) [4]: Active | growth inhibition (GI) [5]: Active | growth inhibition (GI) [6]: Active | growth inhibition (GI) [7]: Active | growth inhibition (GI) [8]: Active | growth inhibition (GI) [9]: Active | growth inhibition (GI) [10]: Active | growth inhibition (GI) [11]: Active | MIC [12]: 10 µg/mL (≈ 24.1 µM) | growth inhibition (GI) [13]: Active | growth inhibition (GI) [14]: Active | growth inhibition (GI) [15]: Active | growth inhibition (GI) [16]: Active | growth inhibition (GI) [17]: Active | growth inhibition (GI) [18]: Active | growth inhibition (GI) [19]: Active | growth inhibition (GI) [20]: Active | growth inhibition (GI) [21]: Active | growth inhibition (GI) [22]: Active | growth inhibition (GI) [23]: Active | growth inhibition (GI) [24]: Active | growth inhibition (GI) [25]: Active | growth inhibition (GI) [26]: Active | growth inhibition (GI) [27]: Active | growth inhibition (GI) [28]: Active | growth inhibition (GI) [29]: Active | growth inhibition (GI) [30]: Active | zone of inhibition at 100 µg/mL [31]: 13 mm | MIC [32]: 10 µg/mL (≈ 24.1 µM) | growth inhibition (GI) [33]: Active | growth inhibition (GI) [34]: Active | growth inhibition (GI) [35]: Active | growth inhibition (GI) [36]: Active | growth inhibition (GI) [37]: Active | growth inhibition (GI) [38]: Active | growth inhibition (GI) [39]: Active | growth inhibition (GI) [40]: Active | growth inhibition (GI) [41]: Active | growth inhibition (GI) [42]: Active | growth inhibition (GI) [43]: Active | growth inhibition (GI) [44]: Active | growth inhibition (GI) [45]: Active

Reference: ChEMBL document CHEMBL4004849, “Tetrazolylmethyl quinolines: Design, docking studies, synthesis, anticancer and antifungal analyses” (2017)
